Test results published in patent US9815840B2 (CJ Healthcare Corporation, priority 2013, dated 2017).

Molecular target: c-Met (Homo sapiens (Human), UniProt P08581)
Test: Analysis of the inhibition of c-Met activity (ADP-Glo Kinase Assay)
Type: biochemical
Settings: c-Met enzyme 2 ng/μL, 250 μM G4Y1 peptide, 50 μM ATP, 1 hour at room temperature, luminescence
Method: Analysis of the Inhibition of c-Met Activity (ADP-Glo™ Kinase Assay
The inhibitory effect of the compounds of the present invention on the activity of c-Met was confirmed as follows.
Specifically, 250 μM G4Y1 peptide, which serves as a substrate for c-Met enzyme (2 ng/μL), and 50 μM ATP were subjected to an enzyme reaction in a reaction buffer (40 mM Tris-HCl (pH 7.5), 20 mM MgCl2, 0.1 mg/mL bovine serum albumin, and 50 μM DTT). The compounds prepared in Examples and comparative compounds were treated at various concentrations and reacted at room temperature for 1 hour, sequentially added with ADP-Glo™ Reagent and the Kinase detection reagent, and reacted at room temperature for 40 minutes and 30 minutes, respectively.
Then, luminescence of the compounds was measured using the Wallaac Victor 2™ (PerkinElmer life sciences, 1420-042). The activity of c-Met inhibitors was evaluated by analyzing the data based on the measured RLU values. The activity of c-Met inhibitors was evaluated as the percentage of remaining activity of the c-Met enzyme in the samples treated with the compounds at concentrations to be tested, with the RLU value of the sample set at 100% control group.

Sequence of c-Met (P08581 25-1390): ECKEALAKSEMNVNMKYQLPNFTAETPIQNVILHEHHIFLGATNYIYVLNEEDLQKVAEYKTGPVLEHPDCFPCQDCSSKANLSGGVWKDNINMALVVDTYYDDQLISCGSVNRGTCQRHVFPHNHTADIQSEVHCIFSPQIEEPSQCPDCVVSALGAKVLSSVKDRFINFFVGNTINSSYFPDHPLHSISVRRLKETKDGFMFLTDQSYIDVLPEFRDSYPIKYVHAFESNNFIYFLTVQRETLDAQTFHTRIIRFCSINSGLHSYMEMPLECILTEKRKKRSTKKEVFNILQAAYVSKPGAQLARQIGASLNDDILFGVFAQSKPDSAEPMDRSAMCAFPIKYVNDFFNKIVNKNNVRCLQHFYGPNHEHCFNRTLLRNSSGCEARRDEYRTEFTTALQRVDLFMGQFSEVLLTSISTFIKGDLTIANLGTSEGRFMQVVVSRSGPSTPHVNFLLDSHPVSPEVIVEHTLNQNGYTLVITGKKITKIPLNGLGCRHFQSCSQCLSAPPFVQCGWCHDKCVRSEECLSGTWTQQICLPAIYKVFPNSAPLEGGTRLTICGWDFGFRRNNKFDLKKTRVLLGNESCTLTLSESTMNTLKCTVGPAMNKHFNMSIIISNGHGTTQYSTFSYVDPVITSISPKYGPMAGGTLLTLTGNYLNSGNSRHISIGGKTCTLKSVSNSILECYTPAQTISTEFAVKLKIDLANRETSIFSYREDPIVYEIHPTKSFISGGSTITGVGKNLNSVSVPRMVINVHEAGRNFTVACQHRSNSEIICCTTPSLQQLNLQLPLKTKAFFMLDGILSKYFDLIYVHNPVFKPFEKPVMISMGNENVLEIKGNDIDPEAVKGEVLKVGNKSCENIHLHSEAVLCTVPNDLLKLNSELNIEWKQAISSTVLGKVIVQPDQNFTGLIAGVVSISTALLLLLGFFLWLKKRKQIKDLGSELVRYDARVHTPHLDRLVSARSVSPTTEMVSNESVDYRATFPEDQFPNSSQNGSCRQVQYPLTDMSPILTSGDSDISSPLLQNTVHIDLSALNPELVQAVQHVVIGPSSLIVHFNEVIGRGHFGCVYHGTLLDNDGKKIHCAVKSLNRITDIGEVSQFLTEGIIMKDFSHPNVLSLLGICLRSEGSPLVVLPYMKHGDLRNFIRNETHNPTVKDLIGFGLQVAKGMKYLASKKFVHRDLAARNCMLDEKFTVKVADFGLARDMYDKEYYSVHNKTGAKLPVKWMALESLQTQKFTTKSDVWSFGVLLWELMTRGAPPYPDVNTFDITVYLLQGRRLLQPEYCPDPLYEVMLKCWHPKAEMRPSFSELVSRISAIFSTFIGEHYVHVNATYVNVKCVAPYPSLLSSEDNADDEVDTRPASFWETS

| IC50 [nM] | SMILES |
| --- | --- |
| < 40 | CC(O)c1cccc(-c2ccn3nccc(Oc4ccc(NC(=O)c5cccn(-c6ccc(F)cc6)c5=O)cc4F)c23)c1 (centres unmarked) [Example 47, N-(3-fluoro-4-((5-(3-(1-hydroxyethyl)phenyl)pyrrolo[1,2-b]pyridazin-4-yl)oxy)phenyl)-1-(4-fluorophenyl)-2-oxo-1,2-dihydropyridin-3-carboxamide] |
| < 40 | CCOc1ccn(-c2ccc(F)cc2)c(=O)c1C(=O)Nc1ccc(Oc2ccnn3ccc(-c4cccc(C=O)c4)c23)c(F)c1 [Example 23, 4-ethoxy-N-(3-fluoro-4-((5-(3-formylphenyl)pyrrolo[1,2-b]pyridazin-4-yl)oxy)phenyl)-1-(4-fluorophenyl)-2-oxo-1,2-dihydropyridin-3-carboxamide] |
| < 40 | CCOc1ccn(-c2ccc(F)cc2)c(=O)c1C(=O)Nc1ccc(Oc2ccnn3ccc(-c4cccc(CN(C)C)c4)c23)c(F)c1 [Example 56, N-(4-((5-(3-((dimethylamino)methyl)phenyl)pyrrolo[1,2-b]pyridazin-4-yl)oxy)-3-fluorophenyl)-4-ethoxy-1-(4-fluorophenyl)-2-oxo-1,2-dihydropyridin-3-carboxamide] |
| < 40 | CCOc1ccn(-c2ccc(F)cc2)c(=O)c1C(=O)Nc1ccc(Oc2ccnn3ccc(-c4cccc(C(C)O)c4)c23)c(F)c1 (centres unmarked) [Example 46, 4-ethoxy-N-(3-fluoro-4-((5-(3-(1-hydroxyethyl)phenyl)pyrrolo[1,2-b]pyridazin-4-yl)oxy)phenyl)-1-(4-fluorophenyl)-2-oxo-1,2-dihydropyridin-3-carboxamide] |
| < 40 | CCOc1ccn(-c2ccc(F)cc2)c(=O)c1C(=O)Nc1ccc(Oc2ccnn3ccc(-c4ccncc4)c23)c(F)c1 [Example 7] |
| < 40 | COc1ccc(-c2ccn3nccc(Oc4ccc(NC(=O)C5(C(=O)Nc6ccc(F)cc6)CC5)cc4F)c23)cc1N [Example 82] |
| < 40 | CCOc1ccn(-c2ccc(F)cc2)c(=O)c1C(=O)Nc1ccc(Oc2ccnn3ccc(-c4cccc(C(=O)N5CCOCC5)c4)c23)c(F)c1 [Example 50, 4-ethoxy-N-(3-fluoro-4-((5-(3-morpholin-4-carbonylphenyl)pyrrolo[1,2-b]pyridazin-4-yl)oxy)phenyl)-1-(4-fluorophenyl)-2-oxo-1,2-dihydropyridin-3-carboxamide] |
| < 40 | Cc1ccc(-c2ccn3nccc(Oc4ccc(NC(=O)C5(C(=O)Nc6ccc(F)cc6)CC5)cc4F)c23)cc1N [Example 78] |
| < 40 | Nc1ccc(F)c(-c2ccn3nccc(Oc4ccc(NC(=O)C5(C(=O)Nc6ccc(F)cc6)CC5)cc4F)c23)c1 [Example 83] |
| < 40 | CCOc1ccn(-c2ccc(F)cc2)c(=O)c1C(=O)Nc1ccc(Oc2ccnn3ccc(-c4cccc(CN5CCOCC5)c4)c23)c(F)c1 [Example 49] |
| < 40 | O=C(Nc1ccc(Oc2ccnn3ccc(-c4cccc(CO)c4)c23)c(F)c1)c1cccn(-c2ccc(F)cc2)c1=O [Example 29] |
| < 40 | CCOc1ccn(-c2ccc(F)cc2)c(=O)c1C(=O)Nc1ccc(Oc2ccnn3ccc(-c4cccc(N)c4)c23)c(F)c1 [Example 53, 4-ethoxy-N-(3-fluoro-4-((5-(3-aminophenyl)pyrrolo[1,2-b]pyridazin-4-yl)oxy)phenyl)-1-(4-fluorophenyl)-2-oxo-1,2-dihydropyridin-3-carboxamide] |
| < 40 | Cc1c(N)cccc1-c1ccn2nccc(Oc3ccc(NC(=O)C4(C(=O)Nc5ccc(F)cc5)CC4)cc3F)c12 [Example 79] |
| < 40 | CCOc1ccn(-c2ccc(F)cc2)c(=O)c1C(=O)Nc1ccc(Oc2ccnn3ccc(-c4cccc(C(C)(C)O)c4)c23)c(F)c1 [Example 43, 4-ethoxy-N-(3-fluoro-4-((5-(3-(2-hydroxypropan-2-yl)phenyl)pyrrolo[1,2-b]pyridazin-4-yl)oxy)phenyl)-1-(4-fluorophenyl)-2-oxo-1,2-dihydropyridin-3-carboxamide] |
